Data on 16 compounds can be found in US12564638B2 (SHANGHAITECH UNIVERSITY, priority 2019, dated 2026).

The subject of one assay is HCC827 cells (EGFR Exon19 del, non-small cell lung cancer cells). The assay is described as follows: Cell viability assay (WST/CCK8), HCC827 cells. The class given is cell-based. Particulars: Homo sapiens, HCC827, 72 h, HCC827 (Exon19 Del), 72 hours, WST (CCK8); read-out: IC50 (half inhibitory concentration). The source says:
The cell lines with abnormal EGFR expression used are as follows: • HCC827 cells (EGFR Exon19 del, non-small cell lung cancer cells); • PC9 cells (EGFR Exon 19 del, non-small cell lung cancer cells); • PC9BracA1 (EGFR Exon 19 del+T790M, non-small cell lung cancer cells) • H1975 (EGFR Exon T790M+L858R mutation, non-small cell lung cancer cell line) • BT474 cells (HER2 positive breast cancer cells)
All of the half inhibitory concentrations (IC50) of these compounds of the present invention were determined with WST reagent from Fuyuan Biotec Company. The specific experiment procedures are as follows: Cancer cells were planted in 96-well-plate at the density of 3 000 cells per well with 100 μL RPMI1640 completed culture medium. In the next day, compounds with indicated concentrations were added to the cells, DMSO was used as the negative control and the EGFR TKIs were used to treat cells as the positive groups. After 72 hours drug treatment, cell viability was measured by using the WST reagent following the instructions.
The cells were treated with the gradient concentration of these compounds (the maximum concentration: 10 μM; 3-fold dilution ratio, 10 concentration gradients) for 72 hours and then incubated with the WST (CCK8) reagent to determine the cell viability.
Take `COc1cc2ncnc(Nc3ccc(F)c(Cl)c3)c2cc1NC(=O)/C=C/CN1CCC(N2CCN(CCCCCCNc3cccc4c3C(=O)N(C3CCC(=O)NC3=O)C4=O)CC2)CC1` (stereo not shown) [SIAIS262072, (E)-N-(4-((3-chloro-4-fluorophenyl)amino)-7-methoxyquinazolin-6-yl)-4-(4-(4-(6-((2-(2,6-dioxopiperidin-3-yl)-1,3-dioxoisoindolin-4-yl)amino)hexyl)piperazin-1-yl)piperidin-1-yl)but-2-enamide]: the IC50 came to 16.9 nM.

With `COc1cc2ncnc(Nc3ccc(F)c(Cl)c3)c2cc1NC(=O)/C=C/CN1CCC(N2CCN(CCCCCNc3cccc4c3C(=O)N(C3CCC(=O)NC3=O)C4=O)CC2)CC1` (stereo not shown) [SIAIS262071, (E)-N-(4-((3-chloro-4-fluorophenyl)amino)-7-methoxyquinazolin-6-yl)-4-(4-(4-(5-((2-(2,6-dioxopiperidin-3-yl)-1,3-dioxoisoindolin-4-yl)amino)pentyl)piperazin-1-yl)piperidin-1-yl)but-2-enamide], the IC50 turned out to be 5.9 nM.

For `COc1cc2ncnc(Nc3ccc(F)c(Cl)c3)c2cc1NC(=O)/C=C/CN1CCN(C(=O)COCCOCCOCCOCCOCCSc2cccc3c2C(=O)N(C2CCC(=O)NC2=O)C3=O)CC1` (stereo not shown) [SIAIS262008, (E)-N-(4-((3-chloro-4-fluorophenyl)amino)-7-methoxyquinazolin-6-yl)-4-(4-(17-((2-(2,6-dioxopiperidin-3-yl)-1,3-dioxoisoindolin-4-yl)thio)-3,6,9,12,15-pentaoxaheptadecanoyl)piperazin-1-yl)but-2-enamide], the IC50 worked out at 46.6 nM.

The assay is the same for the next values; noted with them: Homo sapiens, HCC827, 72 h, Table 3, poziotinib-based compounds; HCC827 (Exon19 Del); 72 hours; WST (CCK8); read-out: IC50 (half inhibitory concentration).
Consider `COc1cc2ncnc(Nc3ccc(Cl)c(Cl)c3F)c2cc1OC1CCN(C(=O)COCCOCC(=O)N[C@H](C(=O)N2C[C@H](O)C[C@H]2C(=O)NCc2ccc(-c3scnc3C)cc2)C(C)(C)C)CC1` [SIAIS249024, (2S,4R)-1-((S)-2-(2-(2-(2-(4-((4-((3,4-dichloro-2-fluorophenyl)amino)-7-methoxyquinazolin-6-yl)oxy)piperidin-1-yl)-2-oxoethoxy)ethoxy)acetamido)-3,3-dimethylbutanoyl)-4-hydroxy-N-(4-(4-methylthiazol-5-yl)benzyl)pyrrolidine-2-carboxamide], for which the IC50 is 174 nM.

Staying with this assay, now noted: Homo sapiens, HCC827, 72 h, Table 4, gefitinib and sapitinib-based compounds; HCC827 (Exon19 Del); 72 hours; WST; read-out: IC50 (half inhibitory concentration).
Take `COc1cc2ncnc(Nc3ccc(F)c(Cl)c3)c2cc1OCCCN1CCC(N2CCN(C(=O)CCCCSc3cccc4c3CN(C3CCC(=O)NC3=O)C4=O)CC2)CC1` (stereo not shown) [SIAIS262086, 3-(4-((5-(4-(1-(3-((4-((3-chloro-4-fluorophenyl)amino)-7-methoxyquinazolin-6-yl)oxy)propyl)piperidin-4-yl)piperazin-1-yl)-5-oxopentyl)thio)-1-oxoisoindolin-2-yl)piperidine-2,6-dione]: the IC50 is 59 nM.

As to `COc1cc2ncnc(Nc3ccc(F)c(Cl)c3)c2cc1OCCCN1CCN(C(=O)CSc2cccc3c2C(=O)N(C2CCC(=O)NC2=O)C3=O)CC1` (stereo not shown) [SIAIS184164, 4-((2-(4-(3-((4-((3-chloro-4-fluorophenyl)amino)-7-methoxyquinazolin-6-yl)oxy)propyl)piperazin-1-yl)-2-oxoethyl)thio)-2-(2,6-dioxopiperidin-3-yl)isoindoline-1,3-dione], the IC50 was 47 nM.

On to `COc1cc2ncnc(Nc3ccc(F)c(Cl)c3)c2cc1OC1CCN(CC(=O)NCCCCCCCSc2cccc3c2CN(C2CCC(=O)NC2=O)C3=O)CC1` (stereo not shown) [SIAIS293051, 2-(4-((4-((3-chloro-4-fluorophenyl)amino)-7-methoxyquinazolin-6-yl)oxy)piperidin-1-yl)-N-(7-((2-(2,6-dioxopiperidin-3-yl)-1-oxoisoindolin-4-yl)thio)heptyl)acetamide], for which the IC50 worked out at 6.5 nM.

With `COc1cc2ncnc(Nc3ccc(F)c(Cl)c3)c2cc1OCCCN1CCC(N2CCNCC2)CC1` [SIAIS262080, N-(3-chloro-4-fluorophenyl)-7-methoxy-6-(3-(4-(piperazin-1-yl)piperidin-1-yl)propoxy)quinazolin-4-amine], the IC50 was 41 nM.

In the case of `COc1cc2ncnc(Nc3ccc(F)c(Cl)c3)c2cc1OC1CCN(CC(=O)O)CC1` [Gefitinib derivative C (SIAIS293033), 2-(4-((4-((3-chloro-4-fluorophenyl)amino)-7-methoxyquinazolin-6-yl)oxy)piperidin-1-yl)acetic acid], the IC50 is 575 nM.

The same assay, now with this note: Homo sapiens, HCC827, 72 h, Table 5, afatinib-based compounds; HCC827 (Exon19 Del); 72 hours; WST; read-out: IC50 (half inhibitory concentration).
In the case of `O=C1CCC(N2Cc3c(SCCCCCC(=O)Nc4cc5c(Nc6ccc(F)c(Cl)c6)ncnc5cc4O[C@H]4CCOC4)cccc3C2=O)C(=O)N1` (stereo partly drawn) [SIAIS1210089, N-(4-((3-chloro-4-fluorophenyl)amino)-7-(((S)-tetrahydrofuran-3-yl)oxy)quinazolin-6-yl)-6-((2-(2,6-dioxopiperidin-3-yl)-1-oxoisoindolin-4-yl)thio)hexanamide], the IC50 turned out to be 160 nM.

As to `O=C1CCC(N2Cc3c(SCCC(=O)Nc4cc5c(Nc6ccc(F)c(Cl)c6)ncnc5cc4O[C@H]4CCOC4)cccc3C2=O)C(=O)N1` (stereo partly drawn) [SIAIS1210085, N-(4-((3-chloro-4-fluorophenyl)amino)-7-(((S)-tetrahydrofuran-3-yl)oxy)quinazolin-6-yl)-3-((2-(2,6-dioxopiperidin-3-yl)-1-oxoisoindolin-4-yl)thio)propanamide], the IC50 came to 481 nM.

With `O=C1CCC(N2C(=O)c3cccc(SCCOCCOCCOCCOCCOCC(=O)Nc4cc5c(Nc6ccc(F)c(Cl)c6)ncnc5cc4O[C@H]4CCOC4)c3C2=O)C(=O)N1` (stereo partly drawn) [SIAIS184156, N-(4-((3-chloro-4-fluorophenyl)amino)-7-(((S)-tetrahydrofuran-3-yl)oxy)quinazolin-6-yl)-17-((2-(2,6-dioxopiperidin-3-yl)-1,3-dioxoisoindolin-4-yl)thio)-3,6,9,12,15-pentaoxaheptadecan-1-amide], the IC50 stood at 978 nM.

Consider `O=C1CCC(N2C(=O)c3cccc(SCCOCCOCCOCCOCC(=O)Nc4cc5c(Nc6ccc(F)c(Cl)c6)ncnc5cc4O[C@H]4CCOC4)c3C2=O)C(=O)N1` (stereo partly drawn) [SIAIS184155, N-(4-((3-chloro-4-fluorophenyl)amino)-7-(((S)-tetrahydrofuran-3-yl)oxy)quinazolin-6-yl)-14-((2-(2,6-dioxopiperidin-3-yl)-1,3-dioxoisoindolin-4-yl)thio)-3,6,9,12-tetraoxatetradecan-1-amide], for which the IC50 was 79 nM.

For `O=C1CCC(N2C(=O)c3cccc(SCCCCCC(=O)Nc4cc5c(Nc6ccc(F)c(Cl)c6)ncnc5cc4O[C@H]4CCOC4)c3C2=O)C(=O)N1` (stereo partly drawn) [SIAIS184095, N-(4-((3-chloro-4-fluorophenyl)amino)-7-(((S)-tetrahydrofuran-3-yl)oxy)quinazolin-6-yl)-6-((2-(2,6-dioxopiperidin-3-yl)-1,3-dioxoisoindolin-4-yl)thio)hexanamide], the IC50 was 174 nM.

Regarding `O=C1CCC(N2C(=O)c3cccc(SCC(=O)Nc4cc5c(Nc6ccc(F)c(Cl)c6)ncnc5cc4O[C@H]4CCOC4)c3C2=O)C(=O)N1` (stereo partly drawn) [SIAIS184093, N-(4-((3-chloro-4-fluorophenyl)amino)-7-(((S)-tetrahydrofuran-3-yl)oxy)quinazolin-6-yl)-2-((2-(2,6-dioxopiperidin-3-yl)-1,3-dioxoisoindolin-4-yl)thio)acetamide], the IC50 stood at 86.2 nM.

Staying with this assay, now noted: Homo sapiens, HCC827, 72 h, Table 8, osimertinib-based compounds; HCC827; 72 hours; WST; read-out: IC50 (half inhibitory concentration).
In the case of `C=CC(=O)Nc1cc(Nc2nccc(-c3cn(C)c4ccccc34)n2)c(OC)cc1N(C)CCN(C)C(=O)COCCOCCOCCOCCSc1cccc2c1CN(C1CCC(=O)NC1=O)C2=O` (stereo not shown) [SIAIS337077, N-(2-((2-acrylamido-5-methoxy-4-((4-(1-methyl-1H-indol-3-yl)pyrimidin-2-yl)amino)phenyl)(methyl)amino)ethyl)-14-((2-(2,6-dioxopiperidin-3-yl)-1-oxoisoindolin-4-yl)thio)-N-methyl-3,6,9,12-tetraoxatetradecanamide], the IC50 is 36 nM.
